Patent US12570607B2, “Compound as cyclin-dependent kinase 9 inhibitor and use thereof” (CSPC Zhongqi Pharmaceutical Technology (Shijiazhuang) Co., …, priority 2019, dated 2026)

Key:
MV4;11 cells = assay: In vitro MV4;11 cell proliferation inhibition (MTT method); assay type: cell-based; conditions: Homo sapiens
Text: The in vitro inhibitory effect of the synthesized compounds on cell proliferation was investigated.
The trade name of MTT was thiazole blue, which was a tetrazolium salt of a dye that could accept hydrogen atoms. […] Dimethyl sulfoxide could dissolve blue-purple complexes in cells, and its light absorption value could be measured at 490-550 nm wavelength with an enzyme-linked immunosorbent detector, which could indirectly reflect the number of cells. Within a certain range of the cell number, the amount of MTT crystals formed was proportional to the number of cells. The drug to be tested was successively diluted to different concentrations and added to a 96-well plate. The OD value was determined after the drug acted for a certain time. The size of the OD value could reflect the number of living cells, and its IC50 value was calculated with SPSS19.0.
Suspension of cells: Cells were […] by centrifugation and counted. A certain density of cell suspension was formulated with a complete culture medium, blown evenly, inoculated on a 96-well plate, 100 μL per well, and then cultured in a CO2 incubator.
An appropriate amount of the drug was added to a calculated amount of DMSO and dissolved. The resulting mixture was dispensed and stored at −20° C. The formulation concentration was 10 mM.
The stock solution of the compound having a concentration of 10 mM was diluted into different concentrations (8 concentrations) of solutions of the compound in DMSO (3-fold dilution, 20×final concentration). Each concentration of solutions (10 μL) of the compound in DMSO was respectively diluted with cell culture media (90 μL) to formulate working solutions (2×final concentration). Each concentration of working solutions (100 μL) of the compound was added to the 96-well plate inoculated with cells (1×final concentration, the highest final concentration is 1000 nM). The resulting plate continued to be cultured in a CO2 incubator.
The 96-well plate was taken out, and the density of cells was observed under a microscope. The test was performed with the MTT method.
MTT method: 20 μL of MTT was added to each well; the plate was cultured for about 4 hours in the incubator; the liquid in the well was discarded; 150 μL of DMSO was added into each well; the plate was placed in a shaker and shaken for 5-10 minutes, and the test was performed with a microplate reader at a wavelength of 550 nm. 7. Data analysis: IC50 value of the drug was calculated with SPSS19.0 statistical software.

hERG channel = hERG channel (Homo sapiens (Human), UniProt Q12809); assay: In vitro hERG inhibitory activity, whole-cell patch-clamp on CHO-K1 cell line stably expressing the hERG channel
Text: Rapid delayed rectifier current (IKr) was mainly mediated by the hERG ion channel and involved in human cardiomyocyte repolarization. Inhibition of IKr was the leading cause of the clinical QT interval prolongation syndrome, even acute cardiac dysrhythmia, and even sudden death. By utilizing a whole-cell patch-clamp technology, the blocking effect of a compound on the hERG channel was detected on a CHO-K1 cell line stably expressing the hERG channel, and the half inhibition concentration IC50 of the compound was determined. It was used as a part of the comprehensive cardiac safety assessment, and it was initially evaluated in the safety in vitro screen for cardiotoxicity.
This assay included the following aspects: • The hERG current was recorded on the CHO-K1 cell line stably expressing the hERG channel by utilizing the manual patch-clamp technology; • The inhibition rate at each concentration was calculated according to the hERG tail current; • The measurement was performed at 5 concentrations for each compound to calculate the IC50 value; • 3 cells were tested at each concentration; • One positive control drug was provided.
The hERG current was recorded by utilizing a whole-cell patch-clamp technology. The cell suspension was added to a dish, and the dish was placed on the object stage of an upright microscope. After adhesion of the cells, perfusion was performed with an extracellular fluid at a flow rate of […]. A glass microelectrode was pulled with a microelectrode puller via a two-step process and the pipette rip resistance was between 2-5 MΩ. After the whole-cell record was set up, the clamp potential was held at −80 mV. The cells were depolarized to +60 mV by applying a voltage stimulus and then repolarized to −50 mV to elicit the hERG tail current. All recordation was conducted after the current became stable. The extracellular perfusion administration was started from the lowest concentration, staying for 5-10 min at each concentration until the current was stable, and then conducted with the next concentration.

hERG channel, sequence (Q12809 whole entry): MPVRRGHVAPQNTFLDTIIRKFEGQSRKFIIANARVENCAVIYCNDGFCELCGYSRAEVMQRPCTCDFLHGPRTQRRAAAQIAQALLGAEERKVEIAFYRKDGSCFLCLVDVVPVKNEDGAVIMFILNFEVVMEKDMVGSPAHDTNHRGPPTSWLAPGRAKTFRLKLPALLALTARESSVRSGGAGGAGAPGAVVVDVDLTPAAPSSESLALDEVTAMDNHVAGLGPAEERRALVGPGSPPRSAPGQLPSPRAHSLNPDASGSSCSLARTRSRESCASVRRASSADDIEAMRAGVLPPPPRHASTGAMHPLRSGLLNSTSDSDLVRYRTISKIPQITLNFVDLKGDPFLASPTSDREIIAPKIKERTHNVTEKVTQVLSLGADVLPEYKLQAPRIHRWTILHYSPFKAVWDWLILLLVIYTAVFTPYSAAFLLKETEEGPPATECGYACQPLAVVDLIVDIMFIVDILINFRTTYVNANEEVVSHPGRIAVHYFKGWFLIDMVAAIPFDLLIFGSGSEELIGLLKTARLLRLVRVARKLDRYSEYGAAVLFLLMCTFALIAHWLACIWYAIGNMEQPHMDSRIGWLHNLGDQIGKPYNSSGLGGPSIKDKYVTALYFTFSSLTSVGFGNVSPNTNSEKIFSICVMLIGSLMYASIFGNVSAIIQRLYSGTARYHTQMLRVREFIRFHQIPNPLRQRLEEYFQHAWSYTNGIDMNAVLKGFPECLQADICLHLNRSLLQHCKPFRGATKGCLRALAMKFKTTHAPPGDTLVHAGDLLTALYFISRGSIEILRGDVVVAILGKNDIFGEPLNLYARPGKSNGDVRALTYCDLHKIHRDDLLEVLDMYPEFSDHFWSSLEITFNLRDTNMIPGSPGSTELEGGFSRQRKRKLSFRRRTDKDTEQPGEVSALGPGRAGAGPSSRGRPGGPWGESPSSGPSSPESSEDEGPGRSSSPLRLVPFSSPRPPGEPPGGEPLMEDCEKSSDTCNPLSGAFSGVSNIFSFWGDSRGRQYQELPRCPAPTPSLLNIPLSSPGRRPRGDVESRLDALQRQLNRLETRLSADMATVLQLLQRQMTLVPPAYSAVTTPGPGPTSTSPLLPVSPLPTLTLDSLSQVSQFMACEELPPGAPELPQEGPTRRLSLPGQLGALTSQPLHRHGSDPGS

IC50 (MV4;11 cells) [nM] | SMILES | IC50 (hERG channel) [nM]
17 | CCOCC(=O)N[C@@H]1CCC[C@H](C(=O)Nc2cc(-c3ccc(F)cc3OC)c(F)cn2)C1 [Compound 46] | 
119 | CC(=O)N[C@@H]1CCC[C@H](C(=O)Nc2cc(-c3ccnc4c3ccn4C)c(F)cn2)C1 [Compound 24] | 
16 | COc1cc(F)ccc1-c1cc(NC(=O)[C@H]2CCC[C@@H](NC(C)=O)C2)ncc1Cl [Compound 71] | 
45 | CC(=O)N[C@@H]1CCC[C@H](C(=O)Nc2cc(-c3ccc(F)cc3OC(C)C)c(F)cn2)C1 [Compound 8] | > 30000
9 | COc1cc(O)ccc1-c1cc(NC(=O)[C@H]2CCC[C@@H](NC(C)=O)C2)ncc1F [Compound 15] | 
34 | COc1cc(F)ccc1-c1cc(NC(=O)[C@H]2CCC[C@@H](NC(=O)/C=C/CN(C)C)C2)ncc1F [Compound 66] | 
6 | COc1cc(F)ccc1-c1cc(NC(=O)[C@H]2CCC[C@@H](NC(=O)C3CC3)C2)ncc1F [Compound 62] | 
8 | COc1cc(F)ccc1-c1cc(NC(=O)[C@H]2CCC[C@@H](NC(=O)CN(C)C)C2)ncc1F [Compound 40] | 
20 | COc1cc(F)ccc1-c1cc(NC(=O)[C@H]2CCC[C@@H](NC(=O)CN)C2)ncc1F [Compound 56] | 
26 | CC(=O)N[C@@H]1CCC[C@H](C(=O)Nc2cc(-c3cccc4ccoc34)c(F)cn2)C1 [Compound 19] | > 30000
120 | COc1cc(F)ccc1-c1cc(NC(=O)C2CCCC(NC(C)=O)C2)ncc1F (stereo not drawn) [Compound 3] | > 30000
34 | COc1cc(F)ccc1-c1cc(NC(=O)[C@H]2CCC[C@@H](NS(C)(=O)=O)C2)ncc1F [Compound 25] | > 30000
21 | COc1cc(F)ccc1-c1cc(NC(=O)[C@H]2CCC[C@@H](NC(=O)C3(C#N)CN(C)C3)C2)ncc1F [Compound 77] | 
6 | COc1cc(F)ccc1-c1cc(NC(=O)[C@H]2CCC[C@@H](NC(=O)[C@@H](CC(C)C)NC(C)=O)C2)ncc1F [Compound 59] | 
12 | COc1cc(F)ccc1-c1cc(NC(=O)[C@H]2CCC[C@@H](NC(=O)C3(F)CC3)C2)ncc1F [Compound 54] | 
52 | CNC(=O)N[C@@H]1CCC[C@H](C(=O)Nc2cc(-c3ccc(F)cc3OC)c(F)cn2)C1 [Compound 37] | > 30000
67 | COc1cc(F)ccc1-c1cc(NC(=O)[C@H]2CCC[C@@H](NC(=O)CS)C2)ncc1F [Compound 81] | 
14 | COc1cc(F)ccc1-c1cc(NC(=O)[C@H]2CCC[C@@H](NC(=O)C(C)(C)O)C2)ncc1F [Compound 83] | 
67 | CC(=O)N[C@@H]1CCC[C@H](C(=O)Nc2cc(-c3ccc(F)nc3F)c(F)cn2)C1 [Compound 20] | 
11 | COc1cc(F)ccc1-c1cc(NC(=O)[C@H]2CCC[C@@H](NC(=O)CC#N)C2)ncc1F [Compound 32] | > 30000
14 | COc1cc(F)ccc1-c1cc(NC(=O)[C@H]2CCC[C@@H](NC(=O)C3(C(F)(F)F)CC3)C2)ncc1F [Compound 55] | 
22 | COc1cc(F)ccc1-c1cc(NC(=O)[C@H]2CCC[C@@H](NC(=O)c3ccccn3)C2)ncc1F [Compound 43] | > 30000
36 | CC(=O)N[C@@H]1CCC[C@H](C(=O)Nc2cc(-c3cccc4[nH]ccc34)c(F)cn2)C1 [Compound 22] | 
10 | COc1cc(F)ccc1-c1cc(NC(=O)[C@H]2CCC[C@@H](NC(=O)N(C)C)C2)ncc1F [Compound 38] | 
12 | COc1cc(F)ccc1-c1cc(NC(=O)[C@H]2CCC[C@@H](NC(=O)C3CCN(C)CC3)C2)ncc1F [Compound 60] | 

IC50 (MV4;11 cells) [nM] | SMILES | IC50 (hERG channel) [nM]
89 | COc1cc(F)c(F)cc1-c1cc(NC(=O)[C@H]2CCC[C@@H](NS(C)(=O)=O)C2)ncc1F [Compound 26] | 
44 | COC(=O)N[C@@H]1CCC[C@H](C(=O)Nc2cc(-c3ccc(F)cc3OC)c(F)cn2)C1 [Compound 36] | > 30000
96 | COc1cc(F)ccc1-c1cc(NC(=O)[C@H]2CCC[C@@H](NC(=O)C(=O)C3CC3)C2)ncc1F [Compound 63] | 
25 | COc1ccccc1-c1cc(NC(=O)[C@H]2CCC[C@@H](NC(C)=O)C2)ncc1F [Compound 17] | > 30000
72 | COc1cc(F)ccc1-c1cc(NC(=O)[C@H]2CCC[C@@H](NC(=O)[C@@H](C)O)C2)ncc1F [Compound 49] | 
26 | COc1cc(F)ccc1-c1cc(NC(=O)[C@H]2CCC[C@@H](NC(=O)[C@H](C)O)C2)ncc1F [Compound 48] | > 30000
13 | COc1cc(F)ccc1-c1cc(NC(=O)[C@H]2CCC[C@@H](NC(=O)C3(O)CC3)C2)ncc1F [Compound 51] | 
23 | CC(=O)N[C@@H]1CCC[C@H](C(=O)Nc2cc(-c3ccnc4[nH]ccc34)c(F)cn2)C1 [Compound 23] | 
32 | COc1cc(F)ccc1-c1cc(NC(=O)[C@H]2CCC[C@@H](NC(=O)C3(C#N)CCOCC3)C2)ncc1F [Compound 35] | 
10 | COc1cc(F)ccc1-c1cc(NC(=O)[C@H]2CCC[C@@H](NC(=O)C3(C)CC3)C2)ncc1F [Compound 53] | 
45 | COc1cc(F)ccc1-c1cc(NC(=O)[C@H]2CCC[C@@H](NC(=O)Nc3cc(C)no3)C2)ncc1F [Compound 41] | 
28 | COc1cc(F)ccc1-c1cc(NC(=O)[C@H]2CCC[C@@H](Nc3nccs3)C2)ncc1F [Compound 69] | 
179 | COc1c(-c2cc(NC(=O)[C@H]3CCC[C@@H](NC(C)=O)C3)ncc2F)ccc(F)c1F [Compound 6] | 
21 | COc1cc(F)ccc1-c1cc(NC(=O)[C@H]2CCC[C@@H](NC(=O)C3(C#N)CCN(C)CC3)C2)ncc1F [Compound 82] | 
6 | C#CC(=O)N[C@@H]1CCC[C@H](C(=O)Nc2cc(-c3ccc(F)cc3OC)c(F)cn2)C1 [Compound 65] | 
100 | COc1cc(F)ccc1-c1cc(NC(=O)[C@H]2CCC[C@@H](NC(=O)CNC(C)=O)C2)ncc1F [Compound 57] | 
9 | C=CC(=O)N[C@@H]1CCC[C@H](C(=O)Nc2cc(-c3ccc(F)cc3OC)c(F)cn2)C1 [Compound 64] | 
21 | COc1cc(F)ccc1-c1cc(NC(=O)[C@H]2CCC[C@@H](NC(=O)C3(C#N)CCC3)C2)ncc1F [Compound 34] | 
8 | COc1cc(F)ccc1-c1cc(NC(=O)[C@H]2CCC[C@@H](NC(=O)C3COC3)C2)ncc1F [Compound 52] | 
37 | COc1cc(F)ccc1-c1cc(NC(=O)[C@H]2CCC[C@@H](NC(=O)CCO)C2)ncc1F [Compound 50] | 
17 | COc1cc(F)ccc1-c1cc(NC(=O)[C@H]2CCC[C@@H](NC(=O)C(F)(F)F)C2)ncc1F [Compound 42] | 
13 | COc1cc(F)ccc1-c1cc(NC(=O)[C@H]2CCC[C@@H](NC(=O)COC(C)=O)C2)ncc1F [Compound 47] | 
48 | COc1cc(F)ccc1-c1cc(NC(=O)[C@H]2CCC[C@@H](NC(=O)CC3CC3)C2)ncc1F [Compound 61] | 
259 | COc1cc(F)ccc1-c1cc(NC(=O)N2CCC[C@@H](NC(C)=O)C2)ncc1F [Compound 70] | 
86 | COc1cc(F)ccc1-c1cc(NC(=O)[C@H]2CCC[C@@H](NC(=O)[C@H](CC(C)C)NC(C)=O)C2)ncc1F [Compound 58] | 
